Marks after values point to notes of the source that are not given here.
Key:
[1] = test system: male Wistar rats; assay: open field activity monitor, testing for sedation; format: in vivo, rat; settings: for open field activity monitor, mean: male, Wistar, rat, in vivo, ip, 20 min
Procedure: (§1) Experiments were performed on male Wistar rats (wt 150-220 g). Three series of experiments were performed in an observer blinded fashion with saline (negative) controls and GABAPentin (positive) controls. The investigations were in three stages: • 1. a range of doses of aprepitant (an example of a NK antagonist) given alone and in combination with flupiritine (an example of an inhibitor of neuronal excitation) were tested for sedating effects using the open field activity monitor. In this way it was determined which doses of drug and drug combinations could be used to test for analgesic effects without causing sedation; • 2. a range of doses of aprepitant given alone and in combination with flupirtine were tested for the ability to reverse the allodynia effect causes by intraplantar injection of carrageenan; • 3. a range of doses of aprepitant given alone and in combination with flupirtine were tested for the ability to reverse the allodynia and hyperalgesia caused by streptozotocin-induced diabetic neuropathy.
Individual rats (several rats per treatment group) were placed in an open field activity monitor in which the movement of the rat could be monitored remotely by the frequency and number of interruption of infrared beams directed across the box in a grid. The activity in the monitor was measured for periods of 20 minutes in each rat. This was performed in groups of rats that received (1) control injection of saline, (2) GABAPentin 50 mg/kg as the maximum dose of the drug found previously not to be sedating (drug positive control) administered intraperitoneally, or (3) after pharmacological interventions that involve the administration of aprepitant and flupiritine given at a range of doses alone and in combination. If a rat was sedated by a drug or drug combination, the movements recorded were less. Since rates became habituated to the open field monitor, only one experiment was performed on each rat with this test.
Rats are observed in a commercially available open-field arena in which locomotor and exploratory activity can be monitored in darkness by the breaking of infrared beams arranged in a grid pattern over the entire area (MedAssociates Inc. St. Albans, Vt., USA 05478). The observations are started 5 minutes after the intraperitoneal administration of drugs. The total time of observations in all cases is 20 minutes. In order to avoid habituation to the activity monitor, animals are used once in this test for sedation. Rest time is defined as the time spent with no new infrared beam interruptions.

[2] = test system: carrageenan-induced allodynia; assay: carrageenan paw inflammation, reversal of allodynia assessed with Von Frey hairs; format: in vivo, rat; settings: rats, IP, non-sedating doses, drug administered alone
Procedure: as §1
Inflammation involves the release of a number of substances into the tissues following injury. These substances including prostaglandins, bradykinin, inflammatory peptides such as substance P and calcitonin gene related peptide and also a number of cytokines. […] Nociceptive thresholds were measured in groups of rats prior to the intraplantar injection. […]

## NCC1(CC(=O)O)CCCCC1 [GABAPentin]
[1]; rats, intraperitoneally, found previously
  maximum dose found previously not to be sedating: 50 mg/kg

## C[C@@H](O[C@H]1OCCN(Cc2n[nH]c(=O)[nH]2)[C@H]1c1ccc(F)cc1)c1cc(C(F)(F)F)cc(C(F)(F)F)c1 [aprepitant]
[1]; 6.25 mg/kg
  open field activity monitor, mean: 869.0
[1]; 12.5 mg/kg
  open field activity monitor, mean: 915.0*
[1]; 25 mg/kg
  open field activity monitor, mean: 964.6*
[1]; 50 mg/kg
  open field activity monitor, mean: 976.6*
[1]; 100 mg/kg
  open field activity monitor, mean: 1058.2*
[1]; rats, drug given alone
  dose causing no sedating effects (upper limit): ≤ 6.25 mg/kg
[2]
  antinociception, reversal of carrageenan-induced allodynia (Von Frey): neither flupirtine or aprepitant given at non-sedating doses caused any antinociception
